According to ChEMBL document CHEMBL4422651, “Revisiting tubercidin against kinetoplastid parasites: Aromatic substitutions at position 7 improve activity and reduce toxicity” (Eur J Med Chem, 2019):
The source made the active and inactive calls. The calls are words filed in the database; no cut-off is given here.

What was measured:
Trypanosoma cruzi [1] = assay: Potency index, ratio of EC50 for benznidazole to EC50 for test compound for antitrypanosomal activity against nifurtimox-sensitive Trypanosoma cruzi Tulahuen CL2 harboring beta-galactosidase infected in human MRC5 cells after 7 days by resazurin dye-based assay; assay type: functional
Peritoneal macrophage = assay: Cytotoxicity against Swiss mouse primary peritoneal macrophages assessed as reduction in cell viability after 5 days; assay type: cell-based; settings: 120 h
[2] = system: Trypanosoma brucei rhodesiense; assay: Antitrypanosomal activity against Trypanosoma brucei rhodesiense STIB-900 after 48 hrs by alamar blue assay; assay type: functional, organism-based; settings: STIB-900, 48 h
Leishmania infantum = assay: Antileishmanial activity against Leishmania infantum amastigotes infected in Swiss mouse primary peritoneal macrophages assessed as reduction in parasite burden after 5 days by Giemsa staining-based microscopic analysis; assay type: functional, organism-based; settings: 120 h
[3] = Selectivity index, ratio of EC50 for human MRC5 cells to EC50 for nifurtimox-sensitive Trypanosoma cruzi Tulahuen CL2 harboring beta-galactosidase; assay type: toxicity; settings: read-out: Ratio EC50
[4] = system: Trypanosoma brucei brucei; assay: Antitrypanosomal activity against Trypanosoma brucei brucei Squib 427 after 48 hrs by alamar blue assay; assay type: functional, organism-based; settings: Squib 427, 48 h
Trypanosoma cruzi [5] = assay: Antitrypanosomal activity against nifurtimox-sensitive Trypanosoma cruzi Tulahuen CL2 harboring beta-galactosidase infected in human MRC5 cells after 7 days by resazurin dye-based assay; assay type: functional, organism-based; settings: for EC50: Tulahuen CL2, MRC5, 168 h
MRC5 = assay: Cytotoxicity against human MRC5 cells assessed as reduction in cell viability after 3 days by resazurin dye-based assay; settings: MRC5, 72 h
[6] = Selectivity index, ratio of EC50 for human MRC5 cells to EC50 for Trypanosoma brucei rhodesiense STIB-900; assay type: toxicity; settings: read-out: Ratio EC50
[7] = Selectivity index, ratio of EC50 for human MRC5 cells to EC50 for Trypanosoma brucei brucei Squib 427; assay type: toxicity; settings: read-out: Ratio EC50
Trypanosoma brucei [8] = assay: (§1) Inhibition of [3H]-adenosine transport at Trypanosoma brucei Adenosine transporter P1 expressed in pentamidine/diminazene/melaminophenyl arsenical resistant Trypanosoma brucei B48 bloodstream forms after 60 secs by scintillation counting analysis
Trypanosoma brucei [9] = assay: (§2) Inhibition of [3H]-adenosine transport at Trypanosoma brucei Adenosine transporter P2 expressed in pentamidine/diminazene/melaminophenyl arsenical resistant Trypanosoma brucei B48 bloodstream forms after 60 secs by scintillation counting analysis
CYP450 [10] = target: T1, CYP450 (Homo sapiens, UniProt P04798+P05177+P05181+P08684+P10632+P10635+P11509+P11712+P13584+P20813+P20815+P20853+P24462+P24903+P33260+P33261+P51589+P78329+P98187+Q02928+Q08477+Q16678+Q16696+Q5TCH4+Q6VVX0+Q7Z449+Q8TAV3+Q96SQ9+Q9HB55); assay: Drug metabolism in human liver S9 fraction assessed as CYP450-mediated metabolism by measuring parent compound remaining at 5 uM measured immediately in presence of NADPH by UPLC analysis; assay type: ADME, subcellular; settings: read-out: Stability
CYP450 [11] = assay: Drug metabolism in mouse liver S9 fraction assessed as CYP450-mediated metabolism by measuring parent compound remaining at 5 uM measured after 15 mins in presence of NADPH by UPLC analysis; assay type: ADME, subcellular; settings: read-out: Stability
CYP450 [12] = assay: Drug metabolism in rat liver S9 fraction assessed as CYP450-mediated metabolism by measuring parent compound remaining at 5 uM measured immediately in presence of NADPH by UPLC analysis; assay type: ADME, subcellular; settings: read-out: Stability
Trypanosoma brucei [13] = assay: Resistance factor, ratio of EC50 for Trypanosoma brucei TbAT1-KO to EC50 for wild type Trypanosoma brucei Lister 427; assay type: functional
CYP450 [14] = assay: Drug metabolism in mouse liver S9 fraction assessed as CYP450-mediated metabolism by measuring parent compound remaining at 5 uM measured immediately in presence of NADPH by UPLC analysis; assay type: ADME, subcellular; settings: read-out: Stability
[15] = system: UDP-glucuronosyltransferases (UGTs); assay: Drug metabolism in human liver S9 fraction assessed as UGT-mediated metabolism by measuring parent compound remaining at 5 uM measured after 30 mins in presence of UDPGA by UPLC analysis; assay type: ADME, subcellular; settings: s9, 0.5 h
Trypanosoma brucei [16] = assay: Resistance factor, ratio of EC50 for pentamidine/diminazene/melaminophenyl arsenical resistant Trypanosoma brucei B48 to EC50 for wild type Trypanosoma brucei Lister 427; assay type: functional
[17] = Drug metabolism in mouse liver S9 fraction assessed as UGT-mediated metabolism by measuring parent compound remaining at 5 uM measured after 60 mins in presence of UDPGA by UPLC analysis; assay type: ADME, subcellular; settings: s9, 1 h
UGT [18] = target: T2, UGT (Homo sapiens, UniProt O60656+O75310+O75795+P06133+P0DTE4+P0DTE5+P16662+P19224+P22309+P22310+P35503+P35504+P36537+P54855+Q6UWM9+Q9BY64+Q9HAW7+Q9HAW8+Q9HAW9); assay: Drug metabolism in human liver S9 fraction assessed as UGT-mediated metabolism by measuring parent compound remaining at 5 uM measured after 60 mins in presence of UDPGA by UPLC analysis; assay type: ADME, subcellular; settings: read-out: Stability
UGT [19] = assay: Drug metabolism in mouse liver S9 fraction assessed as UGT-mediated metabolism by measuring parent compound remaining at 5 uM measured immediately in presence of UDPGA by UPLC analysis; assay type: ADME, subcellular; settings: read-out: Stability
Trypanosoma brucei [20] = assay: Antitrypanosomal activity against pentamidine/diminazene/melaminophenyl arsenical resistant Trypanosoma brucei B48 after 48 hrs by alamar blue assay; assay type: functional, organism-based; settings: B48, 48 h
CYP450 [21] = target: T1, CYP450; assay: Drug metabolism in human liver S9 fraction assessed as CYP450-mediated metabolism by measuring parent compound remaining at 5 uM measured after 30 mins in presence of NADPH by UPLC analysis; assay type: ADME, subcellular; settings: read-out: Stability
[22] = as §1
UGT [23] = target: T2, UGT; assay: Drug metabolism in human liver S9 fraction assessed as UGT-mediated metabolism by measuring parent compound remaining at 5 uM measured immediately in presence of UDPGA by UPLC analysis; assay type: ADME, subcellular; settings: read-out: Stability
UGT [24] = assay: Drug metabolism in rat liver S9 fraction assessed as UGT-mediated metabolism by measuring parent compound remaining at 5 uM measured after 15 mins in presence of UDPGA by UPLC analysis; assay type: ADME, subcellular; settings: read-out: Stability
[25] = system: UDP-glucuronosyltransferases (UGTs); assay: Drug metabolism in human liver S9 fraction assessed as UGT-mediated metabolism by measuring parent compound remaining at 5 uM measured after 15 mins in presence of UDPGA by UPLC analysis; assay type: ADME, subcellular; settings: s9, 0.25 h
Trypanosoma brucei [26] = assay: Antitrypanosomal activity against wild type Trypanosoma brucei Lister 427 after 48 hrs by alamar blue assay; assay type: functional, organism-based; settings: Lister 427, 48 h
CYP450 [27] = assay: Drug metabolism in mouse liver S9 fraction assessed as CYP450-mediated metabolism by measuring parent compound remaining at 5 uM measured after 30 mins in presence of NADPH by UPLC analysis; assay type: ADME, subcellular; settings: read-out: Stability
CYP450 [28] = assay: Drug metabolism in mouse liver S9 fraction assessed as CYP450-mediated metabolism by measuring parent compound remaining at 5 uM measured after 60 mins in presence of NADPH by UPLC analysis; assay type: ADME, subcellular; settings: read-out: Stability
Trypanosoma brucei [29] = assay: Antitrypanosomal activity against Trypanosoma brucei TbAT1-KO after 48 hrs by alamar blue assay; assay type: functional, organism-based
CYP450 [30] = target: T1, CYP450; assay: Drug metabolism in human liver S9 fraction assessed as CYP450-mediated metabolism by measuring parent compound remaining at 5 uM measured after 15 mins in presence of NADPH by UPLC analysis; assay type: ADME, subcellular; settings: read-out: Stability
UGT [31] = assay: Drug metabolism in mouse liver S9 fraction assessed as UGT-mediated metabolism by measuring parent compound remaining at 5 uM measured after 15 mins in presence of UDPGA by UPLC analysis; assay type: ADME, subcellular; settings: read-out: Stability
CYP450 [32] = assay: Drug metabolism in rat liver S9 fraction assessed as CYP450-mediated metabolism by measuring parent compound remaining at 5 uM measured after 30 mins in presence of NADPH by UPLC analysis; assay type: ADME, subcellular; settings: read-out: Stability
Trypanosoma congolense = assay: Antitrypanosomal activity against Trypanosoma congolense by resazurin assay; assay type: functional, organism-based
[33] = as §2
Trypanosoma brucei [34] = assay: Resistance factor, ratio of EC50 for isometamidium resistant Trypanosoma brucei […] to EC50 for wild type Trypanosoma brucei Lister 427; assay type: functional
CYP450 [35] = assay: Drug metabolism in rat liver S9 fraction assessed as CYP450-mediated metabolism by measuring parent compound remaining at 5 uM measured after 15 mins in presence of NADPH by UPLC analysis; assay type: ADME, subcellular; settings: read-out: Stability
Trypanosoma brucei [36] = assay: Antitrypanosomal activity against isometamidium resistant Trypanosoma brucei ISMR1 after 48 hrs by alamar blue assay; assay type: functional, organism-based; settings: ISMR1, 48 h
[37] = Drug metabolism in rat liver S9 fraction assessed as UGT-mediated metabolism by measuring parent compound remaining at 5 uM measured after 60 mins in presence of UDPGA by UPLC analysis; assay type: ADME, subcellular; settings: s9, 1 h
[38] = Drug metabolism in rat liver S9 fraction assessed as UGT-mediated metabolism by measuring parent compound remaining at 5 uM measured after 30 mins in presence of UDPGA by UPLC analysis; assay type: ADME, subcellular; settings: s9, 0.5 h
UGT [39] = assay: Drug metabolism in mouse liver S9 fraction assessed as UGT-mediated metabolism by measuring parent compound remaining at 5 uM measured after 30 mins in presence of UDPGA by UPLC analysis; assay type: ADME, subcellular; settings: read-out: Stability
UGT [40] = assay: Drug metabolism in rat liver S9 fraction assessed as UGT-mediated metabolism by measuring parent compound remaining at 5 uM measured immediately in presence of UDPGA by UPLC analysis; assay type: ADME, subcellular; settings: read-out: Stability
CYP450 [41] = assay: Drug metabolism in rat liver S9 fraction assessed as CYP450-mediated metabolism by measuring parent compound remaining at 5 uM measured after 60 mins in presence of NADPH by UPLC analysis; assay type: ADME, subcellular; settings: read-out: Stability
CYP450 [42] = target: T1, CYP450; assay: Drug metabolism in human liver S9 fraction assessed as CYP450-mediated metabolism by measuring parent compound remaining at 5 uM measured after 60 mins in presence of NADPH by UPLC analysis; assay type: ADME, subcellular; settings: read-out: Stability

SMILES: Nc1ncnc2c1c(-c1ccc(Cl)c(Cl)c1)cn2[C@@H]1O[C@H](CO)[C@@H](O)[C@H]1O
- Ratio EC50 (Trypanosoma cruzi [1]): <=10
- EC50 (Peritoneal macrophage; Mus musculus, Swiss, Peritoneal macrophage): 20000 nM
- EC50 [2]: 320 nM
- EC50 (Leishmania infantum): 1670 nM
- selectivity ratio [3]: 77.4
- EC50 [4]: 3070 nM
- EC50 (Trypanosoma cruzi [5]): 190 nM
- EC50 (MRC5): 14700 nM
- selectivity ratio [6]: 46
- selectivity ratio [7]: 4.8

SMILES: Nc1ncnc2c1ncn2[C@@H]1O[C@H](CO)[C@@H](O)[C@H]1O
- Km (Trypanosoma brucei [8]): 0.16 µM
- Km (Trypanosoma brucei [9]): 0.53 µM

SMILES: Nc1ncnc2c1c(-c1ccccn1)cn2[C@@H]1O[C@H](CO)[C@@H](O)[C@H]1O
- remaining at 0 min, 5 µM (CYP450 [10]): 100%
- remaining at 0.25 h, 5 µM (CYP450 [11]): 36.5%
- remaining at 0 min, 5 µM (CYP450 [12]): 100%
- Ratio EC50 (Trypanosoma brucei [13]): 2.4
- remaining at 0 min, 5 µM (CYP450 [14]): 100%
- Stability [15]: 121%
- Ratio EC50 (Trypanosoma brucei [16]): 1.6
- Stability [17]: 122%
- remaining at 1 h, 5 µM (UGT [18]): 92%
- EC50 [2]: 31 nM
- remaining at 0 min, 5 µM (UGT [19]): 100%
- EC50 (Trypanosoma brucei [20]): 270 nM
- remaining at 0.5 h, 5 µM (CYP450 [21]): 102%
- Ki [22]: 2540 nM
- remaining at 0 min, 5 µM (UGT [23]): 100%
- EC50 [4]: 310 nM
- remaining at 0.25 h, 5 µM (UGT [24]): 115%
- Stability [25]: 123%
- EC50 (Trypanosoma brucei [26]): 170 nM
- remaining at 0.5 h, 5 µM (CYP450 [27]): 12.6%
- Activity (Trypanosoma cruzi [5]): inactive
- remaining at 1 h, 5 µM (CYP450 [28]): 1.9%
- EC50 (Trypanosoma brucei [29]): 400 nM
- remaining at 0.25 h, 5 µM (CYP450 [30]): 96%
- remaining at 0.25 h, 5 µM (UGT [31]): 112%
- remaining at 0.5 h, 5 µM (CYP450 [32]): 77%
- EC50 (MRC5): 15100 nM
- EC50 (Trypanosoma congolense): 200 nM
- Ki [33]: 4570 nM
- Ratio EC50 (Trypanosoma brucei [34]): 2.5
- remaining at 0.25 h, 5 µM (CYP450 [35]): 89%
- EC50 (Trypanosoma brucei [36]): 430 nM
- selectivity ratio [6]: 487
- Stability [37]: 122%
- Stability [38]: 125%
- remaining at 0.5 h, 5 µM (UGT [39]): 102%
- remaining at 0 min, 5 µM (UGT [40]): 100%
- remaining at 1 h, 5 µM (CYP450 [41]): 31%
- remaining at 1 h, 5 µM (CYP450 [42]): 82%
- selectivity ratio [7]: 49

SMILES: Nc1ncnc2c1ccn2[C@@H]1O[C@H](CO)[C@@H](O)[C@H]1O [TUBERCIDIN]
- Activity (Peritoneal macrophage; mouse, peritoneal macrophage): Toxic
- EC50 (Leishmania infantum): 130 nM
- EC50 (Trypanosoma brucei [20]): 4300 nM
- Ki [22]: 78000 nM
- selectivity ratio [3]: 6.5
- EC50 [4]: 480 nM
- EC50 (Trypanosoma brucei [26]): 150 nM
- EC50 (Trypanosoma cruzi [5]): 340 nM
- EC50 (Trypanosoma brucei [29]): 2610 nM
- EC50 (MRC5): 2230 nM
- Ki [33]: 3800 nM
- EC50 (Trypanosoma brucei [36]): 1700 nM
- selectivity ratio [7]: 4.6
